Test results: article PMC3907537, “Evaluation of the Endothelin Receptor Antagonists Ambrisentan, Bosentan, Macitentan, and Sitaxsentan as Hepatobiliary Transporter Inhibitors and Substrates in Sandwich-Cultured Human Hepatocytes” (PLoS ONE, 2014)

System: sandwich-cultured human hepatocytes
Assay: Effect of ERAs on endogenous glycocholic acid (GCA) distribution in sandwich-cultured human hepatocytes
Type: cell-based
Conditions: 24 h, mean ± standard error, n=3 human livers
Method: Sandwich-cultured human hepatocytes were obtained from Celsis/IVT (Baltimore, MD) or Life Technologies (Durham, NC). Donors were male (n = 3) and female (n = 1) between the ages of 31 and 62 years old. Hepatic uptake, biliary excretion and in vitro biliary clearance (Clb) were determined using the B-CLEAR® hepatocyte sandwich culture model as described by Liu et al., 1999 [34]. In this system, hepatocytes form functional bile canalicular networks while maintaining the expression and function of key uptake and efflux transporters. The canalicular system of bile pockets remains separate from the cellular culture media due to tight junctions between cells. The integrity of these tight junctions is maintained in the presence of calcium (Plus (+) buffer) while in the absence of calcium (Minus (−) buffer), these tight junctions open and release the contents of the canalicular network into the media.
Incubation solutions containing ERA (1, 10 and 100 µM) were prepared in cell culture medium. On the sixth day of culturing of the sandwich-cultured hepatocytes, cell culture medium was removed from the wells and incubation solutions containing the test ERAs were added to the cells. The cells were incubated with ERA solution for 24 h at 37°C. After the exposure, the incubation solutions were removed and the cells were rinsed with Plus (+) or Minus (−) buffer. The buffer solutions were then removed and the cells were incubated with fresh Plus (+) or Minus (−) buffer for 5 min at 37°C. Following this 5 minute incubation, the buffer solutions were collected and any remaining buffers were removed. The cells were then washed three times with ice-cold Plus (+) buffer and the plates were frozen at −80°C until processed for bioanalysis.
Study samples were stored in their original 24-well plates at −80°C until prepared for analysis. A volume of 500 µL of cell lysis solution (70∶30 methanol:water) containing 25 nM internal standard was added to each well and mixed for 20 min of mixing. The volume in each well was then transferred to a 96-well filter plate stacked on a Greiner deep well collection plate. The filter plate/collection plate was then centrifuged at 2000 rcf for 5 min. The filtrate was then evaporated to dryness under nitrogen. Samples were reconstituted in 200 µL of sample diluent (60∶40 methanol:10 mM ammonium acetate, native pH), sealed, and placed on a plate shaker for 15 min. These samples were then transferred to a Whatman 96-well 0.45 µm PVDF filter plate stacked on a Costar 3956 plate (HPLC injection plate), centrifuged at 2000 rcf for 2–3 min, and sealed with a silicon cap mat prior to LC-MS/MS analysis. d8-TCA standard spiking solutions were prepared in 50∶50 methanol:water. For a given lysate standard or control, 10 µL was added to each well of a previously frozen analytical plate. Standards representing 0.5–100 pmoles/well and QC’s at the LLQ and ULQ were prepared. These lysate standards and controls were then further processed as described above for unknown study samples. Prepared samples were filtered and analyzed by LC-MS/MS using a Shimadzu binary HPLC system (Columbia, MD) and tandem mass spectrometry using Thermo Electron TSQ® Quantum Discovery MAX™ (Waltham, MA) with an Ion Max ESI source operating in negative ion electrospray ionization mode. Results for unknowns and QCs were calculated using a standard curve based on an internal standard processing method.
Statistical comparisons across ERA treatments were performed using analysis of variance (ANOVA) with Fisher’s PLSD post hoc analysis (Statview 5.0, SAS Institute, Cary NC); statistical significance was considered to be P<0.05. All mass values were normalized to mg protein by taking the average protein mass in the taurocholate plate determined using a BCA protein assay (Pierce Biotechnology, Rockford, IL). […]

| SMILES | GCA BEI (% Control) (1 µM) | GCA Cellular Accumulation (% Control) (1 µM) | GCA Medium Concentration (% Control) (1 µM) | GCA Total Accumulation (% Control) (1 µM) | GCA BEI (% Control) (10 µM) | GCA Cellular Accumulation (% Control) (10 µM) | GCA Medium Concentration (% Control) (10 µM) | GCA Total Accumulation (% Control) (10 µM) | GCA BEI (% Control) (100 µM) | GCA Cellular Accumulation (% Control) (100 µM) | GCA Medium Concentration (% Control) (100 µM) | GCA Total Accumulation (% Control) (100 µM) |
| --- | --- | --- | --- | --- | --- | --- | --- | --- | --- | --- | --- | --- |
| COC(c1ccccc1)(c1ccccc1)[C@H](Oc1nc(C)cc(C)n1)C(=O)O [ambrisentan] | 90.3 ± 13.5 | 93.0 ± 9.3 | 101.0 ± 3.5 | 87.2 ± 10.8 | 75.4 ± 8.6 | 88.2 ± 15.5 | 91.3 ± 7.5 | 73.0 ± 8.4 | 65.9 ± 6.8 | 48.8 ± 10.8 | 95.7 ± 6.7 | 39.1 ± 11.9 |
| COc1ccccc1Oc1c(NS(=O)(=O)c2ccc(C(C)(C)C)cc2)nc(-c2ncccn2)nc1OCCO [bosentan] | 85.9 ± 12.6 | 78.4 ± 14.5 | 99.6 ± 2.1 | 71.9 ± 12.9 | 32.3 ± 30.1 | 55.1 ± 14.4 | 85.5 ± 6.3 | 35.9 ± 5.3 | 35.4 ± 13.9 | 25.6 ± 8.4 | 77.1 ± 10.1 | 17.4 ± 6.1 |
| CCCNS(=O)(=O)Nc1ncnc(OCCOc2ncc(Br)cn2)c1-c1ccc(Br)cc1 [macitentan] | 96.9 ± 17.6 | 81.7 ± 10.7 | 101.0 ± 3.3 | 84.6 ± 12.6 | 54.9 ± 10.3 | 62.7 ± 10.5 | 88.9 ± 1.8 | 46.5 ± 8.3 | 39.4 ± 12.3 | 38.1 ± 13.6 | 52.6 ± 1.2 | 24.7 ± 7.8 |
| Cc1cc2c(cc1CC(=O)c1sccc1S(=O)(=O)Nc1onc(C)c1Cl)OCO2 [sitaxsentan] | 100.0 ± 18.3 | 90.9 ± 6.5 | 104.0 ± 8.1 | 98.6 ± 16.1 | 84.2 ± 6.0 | 69.8 ± 11.1 | 92.8 ± 3.8 | 60.3 ± 7.2 | 61.7 ± 12.2 | 18.6 ± 6.9 | 75.0 ± 3.5 | 14.4 ± 5.4 |
